Measurements from ChEMBL document CHEMBL1145224, “Novel 1beta-methylcarbapenems with isoxazoloethenyl moieties containing carboxylic acid sodium salt” (Bioorg Med Chem Lett, 2005).
Values after ≈ are worked out from the molar mass of the structure shown.

How the values were obtained:
Klebsiella aerogenes = assay: Minimum inhibitory concentration against Klebsiella aerogenes 1522E strain; assay type: functional
Staphylococcus aureus [1] = assay: Minimum inhibitory concentration against […] 285 strain; assay type: functional
Pseudomonas aeruginosa [2] = assay: Minimum inhibitory concentration against was determined against Pseudomonas aeruginosa 9027 strain; assay type: functional
Pseudomonas aeruginosa [3] = assay: Minimum inhibitory concentration against Pseudomonas aeruginosa 1592E strain; assay type: functional
Escherichia coli [4] = assay: Minimum inhibitory concentration against Escherichia coli 1507 E strain; assay type: functional
Staphylococcus aureus [5] = assay: Minimum inhibitory concentration against […] 503 strain; assay type: functional
Streptococcus pyogenes = assay: Minimum inhibitory concentration against Streptococcus pyogenes 308A strain; assay type: functional
Salmonella typhimurium = assay: Minimum inhibitory concentration against Salmonella Typhimurium; assay type: functional, Salmonella enterica subsp. enterica serovar Typhimurium; conditions: Salmonella enterica
Escherichia coli [6] = assay: Minimum inhibitory concentration against Escherichia coli 078 strain; assay type: functional
Pseudomonas aeruginosa [7] = assay: Minimum inhibitory concentration against Pseudomonas aeruginosa 1771M strain; assay type: functional
Enterobacter cloacae = assay: Minimum inhibitory concentration against Enterobacter cloacae 1321E strain; assay type: functional
[8] = Clearance value at a single intravenous administration of 20 mg/kg in rat; assay type: ADME, organism-based; parameters: dose 20 mg/kg, route intravenous; conditions: in vivo
[9] = Half life at a single intravenous administration of 20 mg/kg in rat; assay type: ADME, organism-based; parameters: dose 20 mg/kg, route intravenous; conditions: in vivo
[10] = Half life at a single intravenous administration of 5 mg/kg in dog; assay type: ADME, organism-based, Canis lupus familiaris; parameters: dose 5 mg/kg, route intravenous; conditions: in vivo
[11] = Area under concentration time at a single intravenous administration of 20 mg/kg in rat; assay type: ADME, organism-based; parameters: dose 20 mg/kg, route intravenous; conditions: in vivo
[12] = Clearance value at a single intravenous administration of 5 mg/kg in dog; assay type: ADME, organism-based, Canis lupus familiaris; parameters: dose 5 mg/kg, route intravenous; conditions: in vivo
Moraxella catarrhalis [13] = assay: Minimum inhibitory concentration against Moraxella catarrhalis (n=22); (Range=0.008-0.06); assay type: functional
Pseudomonas aeruginosa [14] = assay: Minimum inhibitory concentration against Pseudomonas aeruginosa (n=60); (Range=0.025-128); assay type: functional
[15] = Area under concentration time at a single intravenous administration of 5 mg/kg in dog; assay type: ADME, organism-based, Canis lupus familiaris; parameters: dose 5 mg/kg, route intravenous; conditions: in vivo
Streptococcus pneumoniae [16] = assay: Minimum inhibitory concentration against Streptococcus pneumoniae (n=22); (Range = 0.008-0.25); assay type: functional
Moraxella catarrhalis [17] = assay: Minimum inhibitory concentration against Moraxella catarrhalis (n=22); (Range=0.008-0.6); assay type: functional
Klebsiella pneumoniae [18] = assay: Minimum inhibitory concentration against Klebsiella pneumoniae (n=30); (Range = 0.03-0.25); assay type: functional
Pseudomonas aeruginosa [19] = assay: Minimum inhibitory concentration against Pseudomonas aeruginosa (n=60); (Range=1-128); assay type: functional
Moraxella catarrhalis [20] = assay: Minimum inhibitory concentration against Moraxella catarrhalis (n=22); (Range = 0.008-0.12); assay type: functional
Klebsiella pneumoniae [21] = assay: Minimum inhibitory concentration against Klebsiella pneumoniae (n=30); (Range = […]); assay type: functional
Moraxella catarrhalis [22] = assay: Minimum inhibitory concentration against Moraxella catarrhalis (n=22); (Range=0.008-0.12); assay type: functional
Streptococcus pneumoniae [23] = assay: Minimum inhibitory concentration against Streptococcus pneumoniae (n=22); (Range=0.008-1); assay type: functional
Klebsiella pneumoniae [24] = assay: Minimum inhibitory concentration against Klebsiella pneumoniae (n=30); (Range=0.008-1); assay type: functional
Streptococcus pneumoniae [25] = assay: Minimum inhibitory concentration against Streptococcus pneumoniae (n=22); (Range = 0.008-0.5); assay type: functional
Klebsiella pneumoniae [26] = assay: Minimum inhibitory concentration against Klebsiella pneumoniae (n=30); (Range=[…]); assay type: functional
Moraxella catarrhalis [27] = assay: Minimum inhibitory concentration against Moraxella catarrhalis (n=22); (Range=0.008-0.25); assay type: functional
Moraxella catarrhalis [28] = assay: microbe, parasite or virus in culture
Klebsiella pneumoniae [29] = assay: Minimum inhibitory concentration against Klebsiella pneumoniae (n=30); (Range=0.06-1); assay type: functional
Pseudomonas aeruginosa [30] = assay: microbe, parasite or virus in culture
Pseudomonas aeruginosa [31] = assay: Minimum inhibitory concentration against Pseudomonas aeruginosa (n=60); (Range=0.5-128); assay type: functional
Pseudomonas aeruginosa [32] = assay: Minimum inhibitory concentration against Pseudomonas aeruginosa (n=60); (Range=0.06-128); assay type: functional
Klebsiella pneumoniae [33] = assay: Minimum inhibitory concentration against Klebsiella pneumoniae (n=30); (Range = 0.015-0.06); assay type: functional
Moraxella catarrhalis [34] = assay: Minimum inhibitory concentration against Moraxella catarrhalis (n=22); (Range=0.008-0.03); assay type: functional
Klebsiella pneumoniae [35] = assay: Minimum inhibitory concentration against Klebsiella pneumoniae (n=30); (Range = 0.015-0.25); assay type: functional
Moraxella catarrhalis [36] = assay: Minimum inhibitory concentration against Moraxella catarrhalis (n=22); (Range=0.015-0.06); assay type: functional
Streptococcus pneumoniae [37] = assay: Minimum inhibitory concentration of the compound was determined against Streptococcus pneumoniae (n=22);(Range = 0.008-0.25); assay type: functional

Row | SMILES | MIC (Klebsiella aerogenes) | MIC (Staphylococcus aureus [1]) | MIC (Pseudomonas aeruginosa [2]) | MIC (Pseudomonas aeruginosa [3]) | MIC (Escherichia coli [4]) | MIC (Staphylococcus aureus [5]) | MIC (Streptococcus pyogenes) | MIC (Salmonella typhimurium) | MIC (Escherichia coli [6]) | MIC (Pseudomonas aeruginosa [7]) | MIC (Enterobacter cloacae) | clearance [8] | half-life [9] | half-life [10] | AUC [11] | clearance [12] | AUC [15] | MIC90 (Streptococcus pneumoniae [16]) | MIC50 (Streptococcus pneumoniae [25]) | MIC90 (Streptococcus pneumoniae [25]) | other results
1 | C[C@@H](O)[C@H]1C(=O)N2C(C(=O)O)=C(S[C@@H]3CN[C@H](/C=C/c4cc(C(=O)[O-])on4)C3)[C@H](C)[C@H]12.[Na+] | 0.049 µg/mL | 0.195 µg/mL | 0.195 µg/mL | 0.391 µg/mL | 0.025 µg/mL | 0.098 µg/mL | 7 ng/mL | 0.049 µg/mL | 0.025 µg/mL | 1.56 µg/mL | 0.025 µg/mL | – | – | – | – | – | – | – | – | – | –
2 | CC1C(S[C@@H]2CN[C@H](/C=C/c3ccno3)C2)=C(C(=O)O)N2C(=O)[C@H]([C@@H](C)O)[C@@H]12 (single isomer, unassigned) | 0.049 µg/mL (≈ 0.121 µM) | 0.049 µg/mL (≈ 0.121 µM) | 0.195 µg/mL (≈ 0.481 µM) | 0.195 µg/mL (≈ 0.481 µM) | 0.025 µg/mL (≈ 0.0617 µM) | 0.098 µg/mL (≈ 0.242 µM) | 4 ng/mL (≈ 0.00986 µM) | 0.049 µg/mL (≈ 0.121 µM) | 0.025 µg/mL (≈ 0.0617 µM) | 0.098 µg/mL (≈ 0.242 µM) | 0.025 µg/mL (≈ 0.0617 µM) | 18 mL/min/kg | 16 min | 23 min | 1130 µg·min/mL | 27 mL/min/kg | 186 µg·min/mL | 0.12 µg/mL (≈ 0.296 µM) | – | – | MIC50 (Moraxella catarrhalis [13]): 0.015 µg/mL (≈ 0.037 µM); MIC50 (Pseudomonas aeruginosa [14]): 8 µg/mL (≈ 19.7 µM); MIC90 (Pseudomonas aeruginosa [14]): 64 µg/mL (≈ 158 µM); MIC50 (Streptococcus pneumoniae [16]): 0.03 µg/mL (≈ 0.074 µM); MIC90 (Moraxella catarrhalis [17]): 0.03 µg/mL (≈ 0.074 µM); MIC50 (Klebsiella pneumoniae [18]): 0.06 µg/mL (≈ 0.148 µM); MIC90 (Klebsiella pneumoniae [18]): 0.12 µg/mL (≈ 0.296 µM)
3 | C[C@@H](O)[C@H]1C(=O)N2C(C(=O)O)=C(S[C@@H]3CN[C@H](C(=O)Nc4cccc(C(=O)O)c4)C3)[C@H](C)[C@H]12 [ERTAPENEM] | – | – | – | – | – | – | – | – | – | – | – | – | – | – | – | – | – | – | – | – | MIC50 (Pseudomonas aeruginosa [19]): 32 µg/mL (≈ 67.3 µM); MIC90 (Pseudomonas aeruginosa [19]): 128 µg/mL (≈ 269 µM); MIC50 (Moraxella catarrhalis [20]): 0.015 µg/mL (≈ 0.0315 µM); MIC90 (Klebsiella pneumoniae [21]): 0.5 µg/mL (≈ 1.05 µM); MIC90 (Moraxella catarrhalis [22]): 0.03 µg/mL (≈ 0.0631 µM); MIC50 (Streptococcus pneumoniae [23]): 0.5 µg/mL (≈ 1.05 µM); MIC90 (Streptococcus pneumoniae [23]): 1 µg/mL (≈ 2.1 µM); MIC50 (Klebsiella pneumoniae [24]): 0.03 µg/mL (≈ 0.0631 µM)
4 | C[C@@H](O)[C@H]1C(=O)N2C(C(=O)O)=C(SCCNC=N)C[C@H]12 [IMIPENEM ANHYDROUS] | 0.195 µg/mL (≈ 0.651 µM) | 0.013 µg/mL (≈ 0.0434 µM) | 0.391 µg/mL (≈ 1.31 µM) | 0.781 µg/mL (≈ 2.61 µM) | 0.098 µg/mL (≈ 0.327 µM) | 0.098 µg/mL (≈ 0.327 µM) | 4 ng/mL (≈ 0.0134 µM) | 0.781 µg/mL (≈ 2.61 µM) | 0.098 µg/mL (≈ 0.327 µM) | 0.195 µg/mL (≈ 0.651 µM) | 0.098 µg/mL (≈ 0.327 µM) | – | – | – | – | – | – | – | 0.12 µg/mL (≈ 0.401 µM) | 0.25 µg/mL (≈ 0.835 µM) | MIC90 (Klebsiella pneumoniae [26]): 0.5 µg/mL (≈ 1.67 µM); MIC50 (Moraxella catarrhalis [27]): 0.06 µg/mL (≈ 0.2 µM); MIC90 (Moraxella catarrhalis [28]): 0.06 µg/mL (≈ 0.2 µM); MIC50 (Klebsiella pneumoniae [29]): 0.12 µg/mL (≈ 0.401 µM); MIC90 (Pseudomonas aeruginosa [30]): 16 µg/mL (≈ 53.4 µM); MIC50 (Pseudomonas aeruginosa [31]): 2 µg/mL (≈ 6.68 µM)
5 | C[C@@H](O)[C@H]1C(=O)N2C(C(=O)O)=C(S[C@@H]3CN[C@H](C(=O)N(C)C)C3)[C@H](C)[C@H]12 [MEROPENEM] | 0.049 µg/mL (≈ 0.128 µM) | 0.195 µg/mL (≈ 0.509 µM) | 0.195 µg/mL (≈ 0.509 µM) | 0.195 µg/mL (≈ 0.509 µM) | 0.025 µg/mL (≈ 0.0652 µM) | – | 13 ng/mL (≈ 0.0339 µM) | 0.049 µg/mL (≈ 0.128 µM) | 0.025 µg/mL (≈ 0.0652 µM) | 0.049 µg/mL (≈ 0.128 µM) | 0.025 µg/mL (≈ 0.0652 µM) | 52 mL/min/kg | – | – | 383 µg·min/mL | 7 mL/min/kg | 695 µg·min/mL | – | 0.5 µg/mL (≈ 1.3 µM) | 0.5 µg/mL (≈ 1.3 µM) | MIC50 (Pseudomonas aeruginosa [32]): 2 µg/mL (≈ 5.22 µM); MIC90 (Pseudomonas aeruginosa [32]): 16 µg/mL (≈ 41.7 µM); MIC50 (Klebsiella pneumoniae [33]): 0.03 µg/mL (≈ 0.0782 µM); MIC90 (Klebsiella pneumoniae [33]): 0.06 µg/mL (≈ 0.156 µM); MIC50 (Moraxella catarrhalis [34]): 8 ng/mL (≈ 0.0209 µM); MIC90 (Moraxella catarrhalis [34]): 8 ng/mL (≈ 0.0209 µM)
6 | C[C@@H](O)[C@H]1C(=O)N2C(C(=O)O)=C(S[C@@H]3CN[C@H](/C=C/c4cc(C(=O)[O-])no4)C3)[C@H](C)[C@H]12.[Na+] | 0.049 µg/mL | 0.195 µg/mL | 0.195 µg/mL | 0.195 µg/mL | 0.025 µg/mL | 0.195 µg/mL | 49 ng/mL | 0.049 µg/mL | 0.013 µg/mL | 0.049 µg/mL | 0.025 µg/mL | 13 mL/min/kg | 12 min | 41 min | 1520 µg·min/mL | 6 mL/min/kg | 861 µg·min/mL | 0.12 µg/mL | – | – | MIC50 (Pseudomonas aeruginosa [32]): 4 µg/mL; MIC90 (Pseudomonas aeruginosa [32]): 64 µg/mL; MIC50 (Klebsiella pneumoniae [35]): 0.03 µg/mL; MIC90 (Klebsiella pneumoniae [35]): 0.12 µg/mL; MIC50 (Moraxella catarrhalis [36]): 0.03 µg/mL; MIC90 (Moraxella catarrhalis [36]): 0.06 µg/mL; MIC50 (Streptococcus pneumoniae [37]): 8 ng/mL
